Data reported in the supplement of paper PMC10307832.

Experiments:
Assay in all cases: relative viability (nuclei count vs DMSO), 5 days (fraction); higher = more cells survive
CX-5461 + OSI-027 = compound: Cc1cnc(CNC(=O)c2c(=O)c3ccc(N4CCCN(C)CC4)nc3n3c2sc2ccccc23)cn1 [CX-5461] + COc1cccc2cc(-c3nc([C@H]4CC[C@H](C(=O)O)CC4)n4ncnc(N)c34)[nH]c12 [OSI-027] (partner 0.5 µM)
How it was run: (§1)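 Lung cancer cell lines in 1536-well plates were dosed by pin tool the day after seeding, either with one drug alone or with a fixed anchor-drug dose plus five library-drug doses (not always all listed) in √10 steps. After 5 days, cells were fixed and their nuclei stained in one step (final 0.05% Triton X-100, 1% formaldehyde, 1 ug/ml Hoechst), then counted on 4× images. Relative viability is the nuclei count in treated wells divided by that in vehicle wells. Values are medians of duplicate plates.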

IMD-0354 + Pictilisib = compound: O=C(Nc1cc(C(F)(F)F)cc(C(F)(F)F)c1)c1cc(Cl)ccc1O [IMD-0354] + CS(=O)(=O)N1CCN(Cc2cc3nc(-c4cccc5[nH]ncc45)nc(N4CCOCC4)c3s2)CC1 [Pictilisib] (partner 1 µM)
How it was run: as §1

IMD-0354 + OSI-027 = compound: O=C(Nc1cc(C(F)(F)F)cc(C(F)(F)F)c1)c1cc(Cl)ccc1O [IMD-0354] + COc1cccc2cc(-c3nc([C@H]4CC[C@H](C(=O)O)CC4)n4ncnc(N)c34)[nH]c12 [OSI-027] (partner 0.5 µM)
How it was run: as §1

IMD-0354 + Navitoclax = compound: O=C(Nc1cc(C(F)(F)F)cc(C(F)(F)F)c1)c1cc(Cl)ccc1O [IMD-0354] + CC1(C)CCC(c2ccc(Cl)cc2)=C(CN2CCN(c3ccc(C(=O)NS(=O)(=O)c4ccc(N[C@H](CCN5CCOCC5)CSc5ccccc5)c(S(=O)(=O)C(F)(F)F)c4)cc3)CC2)C1 [Navitoclax] (partner 0.5 µM)
How it was run: as §1

Cell Line: UMC-11
- relative viability (CX-5461 + OSI-027; first compound 0.01 µM): 0.542
- relative viability (CX-5461 + OSI-027; first compound 0.03162 µM): 0.431
- relative viability (CX-5461 + OSI-027; first compound 0.1 µM): 0.389
- relative viability (CX-5461 + OSI-027; first compound 0.3162 µM): 0.475
- relative viability (CX-5461 + OSI-027; first compound 1 µM): 0.274
- relative viability (IMD-0354 + Pictilisib; first compound 0.04 µM): 0.939
- relative viability (IMD-0354 + Pictilisib; first compound 0.1265 µM): 0.868
- relative viability (IMD-0354 + Pictilisib; first compound 0.4 µM): 0.542
- relative viability (IMD-0354 + Pictilisib; first compound 1.265 µM): 0.187
- relative viability (IMD-0354 + Pictilisib; first compound 4 µM): 0.223
- relative viability (IMD-0354 + OSI-027; first compound 0.04 µM): 0.57
- relative viability (IMD-0354 + OSI-027; first compound 0.1265 µM): 0.469
- relative viability (IMD-0354 + OSI-027; first compound 0.4 µM): 0.3
- relative viability (IMD-0354 + OSI-027; first compound 1.265 µM): 0.215
- relative viability (IMD-0354 + OSI-027; first compound 4 µM): 0.205
- relative viability (IMD-0354 + Navitoclax; first compound 0.04 µM): 0.338
- relative viability (IMD-0354 + Navitoclax; first compound 0.1265 µM): 0.276
- relative viability (IMD-0354 + Navitoclax; first compound 0.4 µM): 0.29
- relative viability (IMD-0354 + Navitoclax; first compound 1.265 µM): 0.112
- relative viability (IMD-0354 + Navitoclax; first compound 4 µM): 0.149
